Values quoted from earlier work as cited in article PMC12163019 (Frontiers in Pharmacology, 2025).

Set-up: method as in Danto et al., 2019a
Conditions: modified-release formulation; ref Danto et al., 2019a

half-life: 38.8 ± 21.1 h
Structure (SMILES): CC[C@@H]1[C@H](F)C(=O)N[C@@H]1COc1nccc2cc(C(N)=O)c(OC)cc12 [zimlovisertib]
